This is an account of results in article PMC11557314 (Frontiers in Pharmacology, 2024).

What is called Ki is a dissociation constant, usually derived from enzyme kinetics or from competition with a known ligand. As a reminder, the EC50 is the concentration giving half of the maximal effect. A word on the Emax: it is the size of the effect at its maximum, as opposed to the concentration needed.

The target in test [1] is T1, hKOPr (Homo sapiens, UniProt P41145). The format is binding. Conditions: for Ki: read-out: Ki hKOPr.
T1 sequence (P41145 whole entry): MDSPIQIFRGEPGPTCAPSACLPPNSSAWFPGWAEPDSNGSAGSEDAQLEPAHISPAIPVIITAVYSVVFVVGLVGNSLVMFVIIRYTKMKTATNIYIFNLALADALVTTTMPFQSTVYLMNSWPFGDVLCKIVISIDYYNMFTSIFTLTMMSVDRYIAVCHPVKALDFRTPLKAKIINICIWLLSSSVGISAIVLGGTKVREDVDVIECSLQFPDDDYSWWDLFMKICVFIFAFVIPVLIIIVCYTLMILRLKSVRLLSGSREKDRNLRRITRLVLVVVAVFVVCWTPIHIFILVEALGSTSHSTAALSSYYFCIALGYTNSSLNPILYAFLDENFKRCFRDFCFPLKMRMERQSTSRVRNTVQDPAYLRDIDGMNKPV
In test [2] the target is T2, hMOPr (Homo sapiens, UniProt P35372). The test can be described thus: Competitive radio binding assay with [3H]-DAMGO on hMOPr-CHO cell membranes. Conditions: read-out: Ki hMOPr; [3H]-DAMGO 1 nM, 60 min 25°C; mean ± SEM.
T2 sequence (P35372 whole entry): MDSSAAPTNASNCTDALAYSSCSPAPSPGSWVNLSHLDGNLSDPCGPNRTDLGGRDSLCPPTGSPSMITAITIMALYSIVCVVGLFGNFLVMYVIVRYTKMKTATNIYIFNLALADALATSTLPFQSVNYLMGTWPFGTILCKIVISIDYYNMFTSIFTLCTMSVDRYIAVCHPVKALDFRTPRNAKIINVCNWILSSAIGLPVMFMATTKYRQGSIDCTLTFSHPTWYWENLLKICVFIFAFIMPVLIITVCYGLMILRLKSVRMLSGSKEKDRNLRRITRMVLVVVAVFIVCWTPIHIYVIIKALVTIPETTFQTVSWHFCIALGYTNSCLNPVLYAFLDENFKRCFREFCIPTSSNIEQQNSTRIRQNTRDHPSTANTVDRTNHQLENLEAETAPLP
The target of test [3] is T2, hMOPr. The format is biochemical. The note with it: for EC50: read-out: hMOPr EC50, stimulation of [35S]GTPγS binding. (GTPγS is a poorly hydrolysed GTP analogue; its binding reports G protein activation.)
The test system of test [4] is hKOPr. The test can be described thus: Biased factor calculation from GTPγS and PRESTO-Tango data. The note with it: G-protein vs β-arrestin, DynA as reference; below 1 = β-arrestin bias. Set-up: species or system human. An excerpt: To perform biased factor analyses, we followed the step-by-step protocol described by [Nagi and Pineyro (2016)]. In short, curve fitting was used to calculate τ and Ka values for G-protein and β-arrestin pathway activation. Log(τ/Ka) ratios were subtracted by log(τ/Ka) of DynA as the reference to yield ΔLog(τ/Ka) values for each peptide. In a final step for each peptide, ΔLog (τ/Ka) values for G-protein pathway activation were subtracted from ΔLog(τ/Ka) values for β-arrestin pathway activation and vice versa to calculate ΔΔLog(τ/Ka). The biased factor is yielded by delogging ΔΔLog (τ/Ka).
To confidently identify a G-protein-biased peptide of interest, it is essential to keep in mind that the responses we collected through GTPγS and PRESTO-Tango assay are not solely determined by drug signaling properties but also by the way the cell and different assays “perceive” the generation of this response. These different “perceptions” of the pharmacological stimulus may themselves be responsible for an imbalance among signals from different pathways. To avoid this, and to be able to correctly estimate whether a peptide is indeed biased, we applied the method proposed by [Kenakin et al. (2012)], that is based on the operational method proposed by [Black and Leff (1983)]. This method takes into consideration receptor occupation by the agonist, communication of the pharmacological stimulus to the system, and the processing of the stimulus by the system that produces the response.

Test [5] addresses T1, hKOPr. The experiment in a line: cell-based. The note with it: for Emax: HEK293, read-out: β-Arrestin recruitment, efficacy at hKOPr Emax; for EC50: read-out: β-Arrestin recruitment, potency at hKOPr EC50. The format is cell-based.
For test [6], the target named is T3, hDOPr (Homo sapiens, UniProt P41143). The test can be described thus: [35S]GTPγS functional assay on hDOPr-CHO cell membranes. The format is biochemical. Conditions: Table 3, mean ± SEM; for hDOPr % stim, stimulation of [35S]GTPγS binding: normalized to DynA; for EC50: read-out: hDOPr EC50, stimulation of [35S]GTPγS binding. As for the experimental part:
CHO cells stably transfected with human KOPr, MOPr, and DOPr (hKOPr-CHO, hMOPr-CHO, and hDOPr-CHO, respectively) were provided by Prof. Liu-Chen (Temple University, Philadelphia, United States). The cells were grown in Gibco™ Dulbecco’s minimal essential medium (DMEM) for hKOPr-CHO or Gibco™ DMEM/F-12 for hMOPr and hDOPr. Both media were supplemented with 10% FBS (Gibco™), GlutaMAX (100 μg/mL; Gibco™), penicillin/streptomycin (100 μg/mL; Gibco™), and geneticin (G418, 400 μg/mL; Gibco™). HEK 293 cells were grown in high-glucose DMEM supplemented with 10% FBS (Gibco™), GlutaMAX (100 μg/mL; Gibco™), and penicillin/streptomycin (100 μg/mL; Gibco™). Cell cultures were maintained in a Heracell™ 150i CO2 incubator at 37°C and 5.0% CO2.
Functional assays were conducted on hKOPr-CHO, hMOPr-CHO, and hDOPr-CHO cell membranes (see above). The membranes were prepared in a buffer containing 20 mM HEPES, 10 μM GDP, cell membrane (10–30 μg), and 0.05 nM [^35S]GTPγS. The buffer containing the cell membranes was incubated with an increasing concentration of the test peptide diluted in 1 × HEPES, pH 7.4, in a total volume of 1 mL, for 60 min at 25°C. The peptide solutions were replaced by diluents for untreated controls. Non-specific binding was determined using unlabeled 10 μM GTPγS. Samples were rapidly washed three times with Tris-HCl and filtered through glass fiber filters (GF/B Whatman). The bound radioactivity was measured by liquid scintillation (Carl Roth GmbH, Karlsruhe, Germany) counting on a Packard 1600 TR Tri-Carb Beta counter (Canberra, Belgium).

The target in test [7] is T3, hDOPr. The experiment in a line: Competitive radio binding assay with [3H]-diprenorphine on hDOPr-CHO cell membranes. The note with it: read-out: Ki hDOPr; [3H]-diprenorphine 1 nM, 60 min 25°C; mean ± SEM.

Where no end group is shown, it is not given here.

T3 sequence (P41143 whole entry): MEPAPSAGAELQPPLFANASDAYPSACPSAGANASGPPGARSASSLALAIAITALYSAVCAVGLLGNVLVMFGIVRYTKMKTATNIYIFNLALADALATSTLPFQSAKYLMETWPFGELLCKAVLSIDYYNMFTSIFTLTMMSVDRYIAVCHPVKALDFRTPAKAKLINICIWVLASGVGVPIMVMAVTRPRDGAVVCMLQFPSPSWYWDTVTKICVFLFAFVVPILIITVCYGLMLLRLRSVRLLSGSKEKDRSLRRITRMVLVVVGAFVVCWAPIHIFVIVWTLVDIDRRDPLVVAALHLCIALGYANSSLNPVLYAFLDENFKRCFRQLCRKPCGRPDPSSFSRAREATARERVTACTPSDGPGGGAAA

Turning to YGGFSRRQFKVVT [DynB_L5S], in test [1], the “Selectivity DOPr/KOPr” value is recorded as 4,153, the “Selectivity MOPr/KOPr” value is on record as 135 and the inhibition constant Ki amounted to 0.00014 µM. For the same sequence, the Ki in test [2] worked out at 0.0186 ± 0.0013 µM. Further, in test [3], the “hMOPr % stim, stimulation of [35S]GTPγS binding” value turned out to be 93.4 ± 5.6% and the EC50 was 0.107 ± 0.0086 µM. Moreover, the “biased factor at hKOPr” value in test [4] is 0.7 ± 0.2. Also, in test [5], the “potency for β-arrestin recruitment compared to DynB_WT” value is on record as “significantly lower potency”, the maximal effect (Emax) is 95.1 ± 7.7% and the EC50 was found to be 0.146 ± 0.0265 µM. Also, in test [6], the “hDOPr % stim, stimulation of [35S]GTPγS binding” value worked out at 86.7 ± 9.2% and the EC50 was 0.31 ± 0.0504 µM. Moreover, the inhibition constant (Ki) in test [7] is 0.573 ± 0.0226 µM.

In the case of YGAFLRRAFKVVT [DynB_G3A/Q8A], in test [1], the “Selectivity DOPr/KOPr” value was 778, the “Selectivity MOPr/KOPr” value was found to be 161 and the Ki is 0.00054 µM. For the same sequence, in test [2], the Ki came out at 0.0861 ± 0.007 µM. Besides, in test [3], the “hMOPr % stim, stimulation of [35S]GTPγS binding” value is given as 111 ± 7.7% and the EC50 was found to be 0.297 ± 0.0466 µM. Also, the “biased factor at hKOPr” value in test [4] is on record as 0.6 ± 0.2. Besides, in test [5], the “stimulation of the receptor (β-arrestin recruitment) in comparison to DynB_WT” value is reported as “lower stimulation”, the Emax turned out to be 88.7 ± 2.6% and the EC50 worked out at 0.0661 ± 0.0016 µM. Also, in test [6], the “hDOPr % stim, stimulation of [35S]GTPγS binding” value stood at 86.4 ± 10.3% and the concentration for a half-maximal effect (EC50) was 1.23 µM. Also, the Ki in test [7] amounted to 0.417 ± 0.052 µM.
